Data taken from patent US20250214962A1, “PYRIDINONE DERIVATIVES AS SELECTIVE CYTOTOXIC AGENTS AGAINST HIV INFECTED CELLS” (Merck Sharp & Dohme LLC, priority 2019, published 2025).

Key:
[1] = Viking EC50, 50% NHS; assay type: cell-based; conditions: method not described, read-out: Viking EC50_50% NHS
[2] = tested on: infected PBMCs (VSV-G pseudotyped HIV virus); assay: cells; assay type: cell-based, human; conditions: Homo sapiens, PBMC, read-out: SMACK EC50_50% NHS

Question: Which EC50 [1] does the source give for `Cc1ccc(Cn2cnc(C(C)(F)F)c(Oc3cc(Cl)cc(C#N)c3F)c2=O)c(=O)[nH]1` [Example 3, 5-chloro-3-((4-(1,1-difluoroethyl)-1-((6-methyl-2-oxo-1,2-dihydropyridin-3-yl)methyl)-6-oxo-1,6-dihydropyrimidin-5-yl)oxy)-2-fluorobenzonitrile] here?
Answer: 14.1 nM

Question: What about the EC50 [2] of the same compound?
Answer: 87.6 nM

Question: For `Cc1c(C#N)cc(Cl)cc1Oc1c(C(C)F)ncn(Cc2ccc(-c3cc[nH]n3)[nH]c2=O)c1=O` (centres unmarked) [Example 12, 5-chloro-3-((4-(1-fluoroethyl)-6-oxo-1-((2-oxo-6-(1H-pyrazol-3-yl)-1,2-dihydropyridin-3-yl)methyl)-1,6-dihydropyrimidin-5-yl)oxy)-2-methylbenzonitrile], which EC50 [1] is on record?
Answer: 127 nM

Question: What about the EC50 [2] of the same compound?
Answer: 374 nM

Question: For `Cc1cc(C)c(Cn2cnc(C(F)(F)C(F)F)c(Oc3cc(C#N)cc(C(F)F)c3)c2=O)c(=O)[nH]1` [Example 40, 3-(difluoromethyl)-5-((1-((4,6-dimethyl-2-oxo-1,2-dihydropyridin-3-yl)methyl)-6-oxo-4-(1,1,2,2-tetrafluoroethyl)-1,6-dihydropyrimidin-5-yl)oxy)benzonitrile], which EC50 [1] is on record?
Answer: 39.2 nM

Question: And the EC50 [2]?
Answer: 283 nM

Question: For `N#Cc1cc(Cl)cc(Oc2c(C(F)(F)C(F)(F)F)ncn(Cc3cc(F)c[nH]c3=O)c2=O)c1F` [Example 20, 5-chloro-2-fluoro-3-((1-((5-fluoro-2-oxo-1,2-dihydropyridin-3-yl)methyl)-6-oxo-4-(perfluoroethyl)-1,6-dihydropyrimidin-5-yl)oxy)benzonitrile], which EC50 [1] is on record?
Answer: 83.7 nM

Question: What about the EC50 [2] of the same compound?
Answer: 99 nM

Question: What does the source list for `Cc1cc(C)c(Cn2cnc(C(F)(F)C(F)F)c(Oc3cc(C(F)F)cc(C#N)c3C)c2=O)c(=O)[nH]1` [Example 5, 5-(difluoromethyl)-3-((1-((4,6-dimethyl-2-oxo-1,2-dihydropyridin-3-yl)methyl)-6-oxo-4-(1,1,2,2-tetrafluoroethyl)-1,6-dihydropyrimidin-5-yl)oxy)-2-methylbenzonitrile]?
Answer: EC50 [1]: 47.1 nM; EC50 [2]: 161 nM

Question: For `CC(F)c1ncn(Cc2ccc(CO)[nH]c2=O)c(=O)c1Oc1cc(Cl)cc(C#N)c1F` (single isomer, unassigned) [Example 32, 5-Chloro-2-Fluoro-3-((4-(1-Fluoroethyl)-1-((6-(Hydroxymethyl)-2-Oxo-1,2-Dihydropyridin-3-Yl)Methyl)-6-Oxo-1,6-Dihydropyrimidin-5-Yl)Oxy)Benzonitrile], which EC50 [1] is on record?
Answer: 18.2 nM

Question: What about the EC50 [2] of the same compound?
Answer: 377 nM

Question: Which EC50 [1] does the source give for `Cc1c(C#N)cc(C(F)F)cc1Oc1c(C(F)(F)C(F)F)ncn(Cc2ccc(CO)[nH]c2=O)c1=O` [Example 25, 5-(Difluoromethyl)-3-((1-((6-(Hydroxymethyl)-2-Oxo-1,2-Dihydropyridin-3-Yl)Methyl)-6-Oxo-4-(1,1,2,2-Tetrafluoroethyl)-1,6-Dihydropyrimidin-5-Yl)Oxy)-2-Methylbenzonitrile] here?
Answer: 19.6 nM

Question: What about the EC50 [2] of the same compound?
Answer: 72.7 nM

Question: With `Cc1cc(C)c(Cn2cnc(C(F)(F)C(F)F)c(Oc3c(C)cc(C#N)cc3C)c2=O)c(=O)[nH]1` [Example 10, 4-((1-((4,6-dimethyl-2-oxo-1,2-dihydropyridin-3-yl)methyl)-6-oxo-4-(1,1,2,2-tetrafluoroethyl)-1,6-dihydropyrimidin-5-yl)oxy)-3,5-dimethylbenzonitrile] as the compound, how does the EC50 [2] read?
Answer: 246 nM

Question: For `Cc1c(C#N)cc(C(F)F)cc1Oc1c(C(F)(F)C(F)F)ncn(Cc2ccc(CCCO)[nH]c2=O)c1=O` [Example 28, 5-(difluoromethyl)-3-((1-((6-(3-hydroxypropyl)-2-oxo-1,2-dihydropyridin-3-yl)methyl)-6-oxo-4-(1,1,2,2-tetrafluoroethyl)-1,6-dihydropyrimidin-5-yl)oxy)-2-methylbenzonitrile], which EC50 [2] is on record?
Answer: 73.8 nM

Question: With `Cc1c(C#N)cc(C(F)F)cc1Oc1c(C(F)(F)C(F)F)ncn(Cc2cc(Br)c[nH]c2=O)c1=O` [Example 11, 3-((1-((5-bromo-2-oxo-1,2-dihydropyridin-3-yl)methyl)-6-oxo-4-(1,1,2,2-tetrafluoroethy)-1,6-dihydropyrimidin-5-yl)oxy)-5-(difluoromethyl)-2-methylbenzonitrile] as the compound, how does the EC50 [2] read?
Answer: 402 nM
